Results: patent US20260251642A1, “MOLECULAR TENSION SENSOR WITH NUCLEIC ACIDS AND HUH-TAGS” (REGENTS OF THE UNIVERSITY OF MINNESOTA, priority 2022, published 2026)
Values joined by “and” are separate entries in the source; they are usually repeats but may differ in a detail not shown here. Equal values may be shown once.

Key:
[1] = molecular target: integrins on U251 cells; assay: cell-based or functional assay
[2] = molecular target: integrins on U251 cells
[3] = tested on: U251 cells; assay: RAD-TGT rupture and delivery, flow cytometry readout, U251 cells; type: cell-based, human; settings: versus DMSO
Procedure: (§1) RAD-TGT Synthesis: TGTs were designed using previously characterized DNA sequences with a 5′ extension to allow for HUH binding. The following oligonucleotides were purchased from Integrated DNA Technologies. To prepare TGTs, anchor and ligand strands were mixed in a 1.1:1 ratio and then annealed in a 1× annealing buffer by heating at 98° C. for five minutes followed by cooling at room temperature for 1 hour. Excess bottom strand was used to mitigate any single stranded fluorescent top strand which may be internalized resulting in false positives. RAD-TGTs were then generated by reacting HUH-ligand of interest with the annealed duplex in a 2:1 ratio. […]
(§2) RAD-TGT Experimental Setup: Cells of interest were trypsinized for five minutes and transferred to Opti-MEM Reduced Serum Media. Cells were then counted using an automated cell counter. […] Cells were removed from wells and analyzed with a BD ACCURI C6 Plus Personal Flow Cytometer without further washing.
(§3) Statistical Analysis: In general, each experiment was performed on at least three separate days with 1-3 separated wells per day. […] The fluorescence data were concatenated to produce the dot plots. The medians of the normalized data for each biological replicate were used to overlay on the dot plot, and statistical significance was calculated using unpaired ANOVA as previously described.

[4] = tested on: CHO-K1 cells; assay: RAD-TGT rupture and delivery, flow cytometry readout, CHO-K1 cells; type: cell-based; settings: versus DMSO
Procedure: as §1, §2, §3

[5] = tested on: U251 and CHO-K1 cells; assay: Soluble RAD-TGT (echistatin) titration on U251 and CHO-K1 cells; type: cell-based
Procedure: FIG. 15. Soluble RAD-TGT titration highlights differences in integrin composition between cell lines. Soluble RAD-TGTs composed of the echistatin conjugated to fluorescently labeled ligand strand annealed to the non-anchor strand was added into the wells at varying concentrations ranging from […]. The total picomolar (pmol) range of oligo was from […]. Thus, the standard RAD-TGT experiment in the main text contained […] oligo assuming all oligo properly adhered, thus this is representative of experimental conditions. From this it was concluded that U251 cells internalize the soluble RAD-TGT at a greater rate than the CHO-K1 cells, […]

[6] = molecular target: integrin receptors; settings: cited from earlier work

With “WDV-echistatin integrin ligand (echistatin recombinantly expressed as a fusion protein with the HUH- (from UniProt P17347 131-179)” the increase in median fluorescence, 12 pN RAD-TGT, U251 cells, flow cytometry [1] was 12 fold, the increase in median fluorescence, 54 pN RAD-TGT, U251 cells, flow cytometry [1] was 7 fold and the fold difference in bound echistatin, U251 against CHO-K1 cells [2] was 3 fold and 4 fold.

In the case of `Cc1ccc2c(c1)C(=O)[C@]1(O)CCN(c3ccc(N)cc3)C1=N2` [Para-amino-blebbistatin, reference compound], the “decrease in fluorescence upon treatment” value ([3]; U251 on WDV-Echi RAD-TGTs, 50 μM, 30 minutes pre-incubation) was ~ 30%, the “effect on median fluorescence, FN ligand” value ([3]; U251 on WDV-FN CY5-labeled RAD-TGTs) was “reduces median fluorescence” and the “decrease in fluorescence upon treatment” value ([4]; CHO-K1 on WDV-Echi RAD-TGTs, 50 μM, 30 minutes pre-incubation) was ~ 30%. The “effect on median fluorescence, FN ligand” value ([4]; CHO-K1 on WDV-FN CY5-labeled RAD-TGTs) was “reduces median fluorescence”.

In the case of Echistatin, the “difference in bound echistatin between U251 and CHO-K1 cells” value [5] is given as “three-to-four-fold” and the “affinity for a broad range of integrin receptors” value [6] is given as “sub-nanomolar”.
